Measurements published in ChEMBL document CHEMBL4229354, “Synthesis, antiamoebic activity and docking studies of metronidazole-triazole-styryl hybrids” (Eur J Med Chem, 2018).

What was measured:
Entamoeba histolytica = test: Antiamoebic activity against trophozoite stage of Entamoeba histolytica HM-1:IMSS measured after 72 hrs by microdilution method; type: functional, organism-based
Vero = test: Cytotoxicity against African green monkey Vero cells up to 50 uM; type: cell-based; details: chlorocebus sabaeus

| Structure (SMILES) | IC50 (Entamoeba histolytica) [nM] | Activity (Vero) |
| --- | --- | --- |
| O=[N+]([O-])c1cnc(/C=C/c2ccccc2)n1CCn1cc(COc2ccccc2)nn1 | 3560 |  |
| O=[N+]([O-])c1cnc(/C=C/c2ccc(F)cc2)n1CCn1cc(-c2ccccn2)nn1 | 130 | Non-Toxic |
| O=[N+]([O-])c1cnc(/C=C/c2ccc(Br)cc2)n1CCn1cc(-c2ccccc2)nn1 | 1770 |  |
| Cc1ccc(/C=C/c2ncc([N+](=O)[O-])n2CCn2cc(-c3ccccc3)nn2)cc1 | 2510 |  |
| O=[N+]([O-])c1cnc(/C=C/c2ccc(F)cc2)n1CCn1cc(-c2ccccc2)nn1 | 120 | Non-Toxic |
| O=[N+]([O-])c1cnc(/C=C/c2ccc(F)cc2)n1CCn1cc(CO)nn1 | 180 | Non-Toxic |
| O=[N+]([O-])c1cnc(/C=C/c2ccc(F)cc2)n1CCn1cc(COc2ccccc2)nn1 | 280 | Non-Toxic |
| O=[N+]([O-])c1cnc(/C=C/c2ccc(Cl)cc2)n1CCn1cc(COc2ccccc2)nn1 | 350 | Non-Toxic |
| CCc1ccc(/C=C/c2ncc([N+](=O)[O-])n2CCn2cc(CO)nn2)cc1 | 4180 |  |
| O=[N+]([O-])c1cnc(/C=C/c2ccccc2)n1CCn1cc(CO)nn1 | 1120 | Non-Toxic |
| Cc1ccc(/C=C/c2ncc([N+](=O)[O-])n2CCn2cc(CO)nn2)cc1 | 2130 |  |
| O=[N+]([O-])c1cnc(/C=C/c2ccccc2)n1CCn1cc(-c2ccccc2)nn1 | 1350 | Non-Toxic |
| Cc1ccc(/C=C/c2ncc([N+](=O)[O-])n2CCn2cc(COc3ccccc3)nn2)cc1 | 5380 |  |
| O=[N+]([O-])c1cnc(/C=C/c2ccc(Br)cc2)n1CCn1cc(CO)nn1 | 1650 |  |
| O=[N+]([O-])c1cnc(/C=C/c2ccc(Cl)cc2)n1CCn1cc(-c2ccccn2)nn1 | 290 | Non-Toxic |
| O=[N+]([O-])c1cnc(/C=C/c2ccc(Br)cc2)n1CCn1cc(COc2ccccc2)nn1 | 1680 |  |
| CCc1ccc(/C=C/c2ncc([N+](=O)[O-])n2CCn2cc(-c3ccccc3)nn2)cc1 | 4680 |  |
| O=[N+]([O-])c1cnc(/C=C/c2ccc(Cl)cc2)n1CCn1cc(-c2ccccc2)nn1 | 1220 | Non-Toxic |
| O=[N+]([O-])c1cnc(/C=C/c2ccc(Br)cc2)n1CCn1cc(-c2ccccn2)nn1 | 1100 | Non-Toxic |
| O=[N+]([O-])c1cnc(/C=C/c2ccc(Cl)cc2)n1CCn1cc(CO)nn1 | 1110 | Non-Toxic |
| O=[N+]([O-])c1cnc(/C=C/c2ccccc2)n1CCn1cc(-c2ccccn2)nn1 | 5130 |  |
| Cc1ccc(/C=C/c2ncc([N+](=O)[O-])n2CCn2cc(-c3ccccn3)nn2)cc1 | 6010 |  |
